Laboratory results taken from PubChem BioAssay AID1963863 (Molecular Pharmacology Branch, DTP, NCI, 2024).

Test system: 931267-113-T-J1-PDC KRAS spheroid with HUVEC/MSC, viability
Experiment: Anticancer human tumor 931267-113-T-J1-PDC patient-derived colon adenocarcinoma cell line growth inhibition [KRAS2]
Details: for IC50: curve of first compound; for viability, T/C: stronger effect = lower value
Source text: Multicellular complex tumor spheroid response to RAS pathway inhibitors in combination with a targeted agents in patient-derived cell lines with oncogenic KRAS variants from multiple cancer types
A high-throughput screen of multi-cell type tumor spheroids was designed to identify active combinations of targeted small molecules and KRAS pathway inhibitors. Complex spheroids include a stromal component modeled by human endothelial cells (HUVEC) and fibroblasts modeled by human mesenchymal stem cells (MSCs). The concentration ranges selected for each drug and investigational agent were based upon clinically achievable concentrations if the clinical Cmax of the agent was known.
Compounds. The drugs and investigational agents: BI-3406 (NSC825286), BAY-293 (NSC824723), batoprotafib (TNO155; NSC825523), sotorasib (AMG 510; NSC818433), MRTX1257 (NSC819558), elimusertib (BAY 1895344; NSC800525), molibresib (GSK525762; NSC774829), temuterkib (LY3214996; NSC803410), venetoclax (NSC766270), alisertib (NSC759677), olaparib (NSC753686), talazoparib (NSC767125), erdafitinib (NSC781556), ipatasertib (NSC767898), cabozantinib (NSC761068), nintedanib (NSC756659), abemaciclib (NSC768073), docetaxel (NSC628503), trametinib (NSC758246), and sapanisertib (NSC764658) were obtained from the National Cancer Institute (NCI) Developmental Therapeutics Program Chemical Repository. The FDA-approved anticancer drug set is available from the Developmental Therapeutics Program. […] The stock solutions were prepared in dimethyl sulfoxide (DMSO, Sigma-Aldrich, St. Louis, MO, cat. D2650) at 800-fold the tested concentration and stored at -70 degrees C prior to their use. All drugs and investigational agents were tested over a range starting from a high concentration at or near the clinical Cmax and decreasing in half-log increments. If the clinical Cmax for an agent had not been determined, the highest concentration tested was 10 microM.
Cell Culture. All cells were maintained in an incubator at 37 degrees C and 5% CO2 with 95% humidity. The PDC lines were cultured according to standard operating procedures established by the NCI PDMR (https://pdmr.cancer.gov/sops/default.htm). Briefly, all PDCs were thawed and cultured in Matrigel-coated flasks prepared with a working solution of 1X Ham's F-12 nutrient mix, without supplementation (Invitrogen, Waltham, MA, cat. 11765054), 100 U/mL penicillin-streptomycin (Invitrogen, cat. 15140122), and 2.5% Matrigel (Corning Inc., Corning, NY, cat. 354248) for the first three passages. All PDCs were cultured in complete DMEM/F-12 media containing advanced DMEM/F-12 (Invitrogen, cat. 12634028), 4.9% defined fetal bovine serum, heat inactivated (HyClone Laboratories Inc., Logan, UT, cat. SH30070.03HI), 389 ng/mL hydrocortisone (Sigma-Aldrich, cat. H4001), 9.7 ng/mL human EGF recombinant protein (Invitrogen, cat. PHG0313), 23.4 microg/mL adenine (Sigma-Aldrich, cat. A2786), 97.3 U/mL penicillin-streptomycin (Invitrogen, cat. 15140122), 1.9 mM L-glutamine (Invitrogen, cat. 25030081), and 9.7 microM Y-27632 dihydrochloride (Tocris Bioscience, Bristol, United Kingdom, cat. 1254). The PDCs were cultured in complete DMEM/F12 media without 9.7 microM Y-27632 dihydrochloride for at least two passages prior to the screen. The established cell line HOP-62 was cultured in RPMI 1640 medium, HEPES (Invitrogen, cat. 22400105) with 10% defined fetal bovine serum (HyClone Laboratories Inc., cat. SH30070.03) and 2 mM L-glutamine (Invitrogen, cat. 25030081). The pooled donor HUVEC were cultured in endothelial cell growth medium 2 (PromoCell, Heidelberg, Germany, cat. C-22011) and the hMSC were cultured in mesenchymal stem cell growth medium 2 (PromoCell, cat. C-28009). For all experiments, HUVEC and hMSC were used at passages </=5, while the malignant cell lines were used at passages </=15. […]

[1] = second compound 0.1 µM, first compound 0.0316 µM
[2] = second compound 0.1 µM, first compound 0.1 µM
[3] = second compound 0.316 µM, first compound 0.0316 µM
[4] = second compound 0.316 µM, first compound 0.1 µM
[5] = second compound 1 µM, first compound 0.0316 µM
[6] = second compound 1 µM, first compound 0.1 µM
[7] = second compound 3.16 µM, first compound 0.0316 µM
[8] = second compound 3.16 µM, first compound 0.1 µM
[9] = second compound 10 µM, first compound 0.0316 µM
[10] = second compound 10 µM, first compound 0.1 µM
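Further: compound exposure lasted 7 days before the readout.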
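Wherever viability, T/C is given: 100% = DMSO vehicle control viability.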

CC(C)n1nc(-c2ccc3oc(N)nc3c2)c2c(N)ncnc21 + C=CC(=O)N1CCN(c2nc(=O)n(-c3c(C)ccnc3C(C)C)c3nc(-c4c(O)cccc4F)c(F)cc23)C(C)C1
IC50 (second compound 0.1 µM): 10.8 nM
IC50 (second compound 0.316 µM): 9.04 nM
IC50 (second compound 1 µM): 7.94 nM
IC50 (second compound 3.16 µM): 9.47 nM
IC50 (second compound 10 µM): 8.24 nM
viability, T/C (second compound 0.1 µM, first compound 0.000316 µM): 106%
viability, T/C (second compound 0.1 µM, first compound 0.001 µM): 89.4%
viability, T/C (second compound 0.1 µM, first compound 0.00316 µM): 83.5%
viability, T/C (second compound 0.1 µM, first compound 0.01 µM): 48.2%
viability, T/C [1]: 34.3%
viability, T/C [2]: 26.7%
viability, T/C (second compound 0.316 µM, first compound 0.000316 µM): 116%
viability, T/C (second compound 0.316 µM, first compound 0.001 µM): 75.7%
viability, T/C (second compound 0.316 µM, first compound 0.00316 µM): 77.4%
viability, T/C (second compound 0.316 µM, first compound 0.01 µM): 44.8%
viability, T/C [3]: 33.6%
viability, T/C [4]: 27.2%
viability, T/C (second compound 1 µM, first compound 0.000316 µM): 100%
viability, T/C (second compound 1 µM, first compound 0.001 µM): 117%
viability, T/C (second compound 1 µM, first compound 0.00316 µM): 87.6%
viability, T/C (second compound 1 µM, first compound 0.01 µM): 41.2%
viability, T/C [5]: 27.9%
viability, T/C [6]: 25.1%
viability, T/C (second compound 3.16 µM, first compound 0.000316 µM): 108%
viability, T/C (second compound 3.16 µM, first compound 0.001 µM): 94.4%
viability, T/C (second compound 3.16 µM, first compound 0.00316 µM): 95.6%
viability, T/C (second compound 3.16 µM, first compound 0.01 µM): 47.1%
viability, T/C [7]: 28.9%
viability, T/C [8]: 22.3%
viability, T/C (second compound 10 µM, first compound 0.000316 µM): 101%
viability, T/C (second compound 10 µM, first compound 0.001 µM): 86.4%
viability, T/C (second compound 10 µM, first compound 0.00316 µM): 69.7%
viability, T/C (second compound 10 µM, first compound 0.01 µM): 48.4%
viability, T/C [9]: 25.1%
viability, T/C [10]: 22%

COc1cc2nccc(Oc3ccc(NC(=O)C4(C(=O)Nc5ccc(F)cc5)CC4)cc3)c2cc1OC + C=CC(=O)N1CCN(c2nc(=O)n(-c3c(C)ccnc3C(C)C)c3nc(-c4c(O)cccc4F)c(F)cc23)C(C)C1
IC50 (second compound 0.1 µM): > 10000 nM
IC50 (second compound 0.316 µM): 3110 nM
IC50 (second compound 1 µM): > 10000 nM
IC50 (second compound 3.16 µM): 2580 nM
IC50 (second compound 10 µM): 723 nM
viability, T/C [1]: 115%
viability, T/C [2]: 96.3%
viability, T/C (second compound 0.1 µM, first compound 0.316 µM): 91.7%
viability, T/C (second compound 0.1 µM, first compound 1 µM): 104%
viability, T/C (second compound 0.1 µM, first compound 3.16 µM): 65.1%
viability, T/C (second compound 0.1 µM, first compound 10 µM): 69%
viability, T/C [3]: 105%
viability, T/C [4]: 96.6%
viability, T/C (second compound 0.316 µM, first compound 0.316 µM): 97.1%
viability, T/C (second compound 0.316 µM, first compound 1 µM): 96.3%
viability, T/C (second compound 0.316 µM, first compound 3.16 µM): 49.3%
viability, T/C (second compound 0.316 µM, first compound 10 µM): 48.5%
viability, T/C [5]: 108%
viability, T/C [6]: 115%
viability, T/C (second compound 1 µM, first compound 0.316 µM): 98.4%
viability, T/C (second compound 1 µM, first compound 1 µM): 109%
viability, T/C (second compound 1 µM, first compound 3.16 µM): 63.7%
viability, T/C (second compound 1 µM, first compound 10 µM): 57.2%
viability, T/C [7]: 106%
viability, T/C [8]: 92.8%
viability, T/C (second compound 3.16 µM, first compound 0.316 µM): 98.2%
viability, T/C (second compound 3.16 µM, first compound 1 µM): 82.3%
viability, T/C (second compound 3.16 µM, first compound 3.16 µM): 43%
viability, T/C (second compound 3.16 µM, first compound 10 µM): 34.4%
viability, T/C [9]: 82.6%
viability, T/C [10]: 80.6%
viability, T/C (second compound 10 µM, first compound 0.316 µM): 54.3%
viability, T/C (second compound 10 µM, first compound 1 µM): 58.1%
viability, T/C (second compound 10 µM, first compound 3.16 µM): 10.7%
viability, T/C (second compound 10 µM, first compound 10 µM): 18.5%
